The target of one assay is T1, HDAC6 (Homo sapiens, UniProt Q9UBN7).
T1 sequence (Q9UBN7 1-1215): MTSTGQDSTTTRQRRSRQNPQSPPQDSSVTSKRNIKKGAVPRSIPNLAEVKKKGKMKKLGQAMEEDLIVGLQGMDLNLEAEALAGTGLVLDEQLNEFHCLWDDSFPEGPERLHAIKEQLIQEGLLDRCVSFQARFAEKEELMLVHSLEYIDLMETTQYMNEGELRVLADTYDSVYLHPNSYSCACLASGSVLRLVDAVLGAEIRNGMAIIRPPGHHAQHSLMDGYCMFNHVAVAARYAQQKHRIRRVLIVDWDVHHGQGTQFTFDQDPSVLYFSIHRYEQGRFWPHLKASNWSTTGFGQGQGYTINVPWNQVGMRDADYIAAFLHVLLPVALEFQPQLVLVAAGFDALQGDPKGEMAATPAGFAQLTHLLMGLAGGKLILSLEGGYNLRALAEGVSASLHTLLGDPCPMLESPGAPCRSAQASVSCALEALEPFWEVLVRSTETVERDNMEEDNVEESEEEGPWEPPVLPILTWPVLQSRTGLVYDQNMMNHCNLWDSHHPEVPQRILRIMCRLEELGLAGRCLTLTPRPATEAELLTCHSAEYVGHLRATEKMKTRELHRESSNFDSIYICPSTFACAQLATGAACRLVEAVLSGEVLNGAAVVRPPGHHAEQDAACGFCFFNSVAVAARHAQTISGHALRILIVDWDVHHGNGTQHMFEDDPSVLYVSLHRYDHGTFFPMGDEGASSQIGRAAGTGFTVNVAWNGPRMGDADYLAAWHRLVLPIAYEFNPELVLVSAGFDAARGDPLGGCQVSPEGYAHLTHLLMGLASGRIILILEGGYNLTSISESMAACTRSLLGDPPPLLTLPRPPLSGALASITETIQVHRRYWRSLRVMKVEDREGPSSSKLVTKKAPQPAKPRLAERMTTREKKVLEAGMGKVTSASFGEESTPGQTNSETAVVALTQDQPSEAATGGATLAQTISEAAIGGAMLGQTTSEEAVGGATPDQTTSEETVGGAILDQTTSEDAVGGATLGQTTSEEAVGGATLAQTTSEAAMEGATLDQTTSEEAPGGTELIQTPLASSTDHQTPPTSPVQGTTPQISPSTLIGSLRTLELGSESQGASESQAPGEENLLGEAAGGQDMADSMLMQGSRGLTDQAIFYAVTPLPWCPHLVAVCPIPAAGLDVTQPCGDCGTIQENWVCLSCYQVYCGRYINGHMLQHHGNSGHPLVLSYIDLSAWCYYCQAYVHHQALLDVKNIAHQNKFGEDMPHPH
The assay can be described thus: Human HDAC enzyme inhibitor Fluor-de-Lys assay, HDAC6. It counts as biochemical.

Another assay has as its target T2, Recombinant human HDAC8 (Homo sapiens, UniProt Q9BY41).
T2 construct: purchased Enzo Life Sciences BML-SE145-0100
T2 sequence (Q9BY41 1-377): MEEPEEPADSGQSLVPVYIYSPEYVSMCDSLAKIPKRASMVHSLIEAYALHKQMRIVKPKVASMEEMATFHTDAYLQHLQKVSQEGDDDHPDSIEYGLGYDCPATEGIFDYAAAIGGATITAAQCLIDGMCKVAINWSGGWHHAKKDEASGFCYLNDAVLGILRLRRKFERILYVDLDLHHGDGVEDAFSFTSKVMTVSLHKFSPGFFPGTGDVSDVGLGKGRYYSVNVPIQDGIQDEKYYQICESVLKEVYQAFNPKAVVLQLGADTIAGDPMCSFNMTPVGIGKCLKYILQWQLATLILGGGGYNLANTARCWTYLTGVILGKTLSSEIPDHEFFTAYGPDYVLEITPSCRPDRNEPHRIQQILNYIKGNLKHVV
Kind of assay: Human HDAC enzyme inhibitor Fluor-de-Lys assay, HDAC8. Format: biochemical.

The test system of the next assay is KARN cells (Jurkat 2C4). The assay can be described thus: cells. Format: cell-based. The gist of the method: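 Jurkat 2C4 (KARN) cells dosed with test compounds up to 40 μM final, 0.4% DMSO, overnight at 5% CO2; luciferase read by Steady-Glo luminescence after 10 min at room temperature. DMSO set as 0% and 2 μM SAHA as 100% induction; 4-parameter fit of percent activation.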

The mark [1] stands for this setting: recombinant human HDAC8, Fluor-de-Lys assay.
Where [2] appears, read: read-out: Karn EC50 (nM) 0.1% NHS, 0.1% normal human serum, luciferase induction, 100% = 2 μM SAHA.
Where [3] appears, read: read-out: Karn EC50 (nM) 5% NHS, 5% normal human serum, luciferase induction, 100% = 2 μM SAHA.
Setting [4] is: Homo sapiens, Jurkat, read-out: Karn EC50 (nM) 0.1% NHS, 0.1% normal human serum, luciferase induction, 100% = 2 μM SAHA.
Setting [5] is: Homo sapiens, Jurkat, read-out: Karn EC50 (nM) 5% NHS, 5% normal human serum, luciferase induction, 100% = 2 μM SAHA.
[6] abbreviates: Homo sapiens, Jurkat, read-out: Karn EC50 (nM) 0.1% NHS, 0.1% normal human serum.
Where [7] appears, read: Homo sapiens, Jurkat, read-out: Karn EC50 (nM) 5% NHS, 5% normal human serum.

Usually IC50 stands for the concentration that gives 50% inhibition. In general, EC50 refers to the midpoint of the concentration-response curve.

SMILES strings stand for the structures. Read-outs that look alike come from different tables or passages of the source.

As to `CCC(=O)CCCCC[C@H](NC(=O)[C@H]1CC12CCCN(C)C2)c1ncc(-c2cc3ccccc3nc2OC)[nH]1` (stereo partly drawn) [Compound 287], the IC50 against HDAC6 (HDAC6, Fluor-de-Lys assay) was determined as 351 nM; at Recombinant human HDAC8 (setting [1]), 2780 nM. Besides, the EC50 worked out at 81 nM in the assay with KARN cells (Jurkat 2C4) (setting [2]) and 325 nM in the assay with KARN cells (Jurkat 2C4) (setting [3]).

In the case of `CCC(=O)CCCCC[C@H](NC(=O)[C@@H]1C[C@@]12CCN(C)C2)c1ncc(-c2cc3ccccc3nc2OC)[nH]1` [Compound 330], the IC50 amounted to 632 nM on HDAC6 (HDAC6, Fluor-de-Lys assay) and 13700 nM at Recombinant human HDAC8 (setting [1]). The EC50 with KARN cells (Jurkat 2C4) (setting [4]) was 309 nM; with KARN cells (Jurkat 2C4) (setting [5]) it was 1150 nM.

For the molecule `CCC(=O)CCCCC[C@H](NC(=O)C1CC12CN(C)C2)c1ncc(-c2cc3ccccc3nc2OC)[nH]1` (stereo partly drawn) [Compound 312], the IC50 worked out at 299 nM on HDAC6 (HDAC6, Fluor-de-Lys assay) and 2020 nM at Recombinant human HDAC8 (setting [1]). Also, the EC50 with KARN cells (Jurkat 2C4) (setting [4]) was 155 nM; with KARN cells (Jurkat 2C4) (setting [5]), 633 nM.

On to `CCN1CCC2(CC1)C[C@@H]2C(=O)N[C@@H](CCCCCC(=O)CC1CC1)c1ncc(-c2cccnc2OC)[nH]1` [Compound 202], for which the values for the IC50 on HDAC6 and on Recombinant human HDAC8 were 34900 nM and 8780 nM, respectively. For the same molecule, the EC50 was found to be 210 nM in the assay on KARN cells (Jurkat 2C4) (setting [6]) and 501 nM with KARN cells (Jurkat 2C4) (setting [7]).

Regarding `CCC(=O)CCCCC[C@H](NC(=O)[C@H]1CC12CCN(CC)CC2)c1ncc(-c2ccc3cccnc3c2)[nH]1` [Compound 344], the IC50 at HDAC6 (HDAC6, Fluor-de-Lys assay) is 862 nM; on Recombinant human HDAC8 (setting [1]) it was 3420 nM. Moreover, the values for the EC50 in the assay with KARN cells (Jurkat 2C4) (setting [4]) and in the assay with KARN cells (Jurkat 2C4) (setting [5]) were 37 nM and 54 nM, respectively.

With `CCC(=O)CCCCC[C@H](NC(=O)[C@H]1CC12CCN(C)CC2)c1ncc(-c2cc3ccccc3nc2OC)[nH]1` (single isomer, unassigned) [Compound 321], the IC50 on HDAC6 (HDAC6, Fluor-de-Lys assay) was 158 nM; at Recombinant human HDAC8 (setting [1]), 3380 nM. Further, the EC50 in the assay with KARN cells (Jurkat 2C4) (setting [4]) was 27 nM; with KARN cells (Jurkat 2C4) (setting [5]), 83 nM.

For `CCC(=O)CCCCC[C@H](NC(=O)[C@H]1CC12CCN(CC)CC2)c1ncc(-c2cc3ccn(CC)c(=O)c3cc2OC)[nH]1` [Compound 245], the IC50 at HDAC6 (HDAC6, Fluor-de-Lys assay) was 694 nM; on Recombinant human HDAC8 (setting [1]), 9010 nM. The EC50 amounted to 18 nM in the assay with KARN cells (Jurkat 2C4) (setting [4]) and 22 nM with KARN cells (Jurkat 2C4) (setting [5]).

Consider `CCC(=O)CCCCC[C@H](NC(=O)C1CCC2(CC1)CN(C)C2)c1ncc(-c2cc3ccccc3nc2OC)[nH]1` [Compound 316], for which the IC50 at HDAC6 (HDAC6, Fluor-de-Lys assay) stood at 387 nM; on Recombinant human HDAC8 (setting [1]), 1680 nM. The EC50 in the assay on KARN cells (Jurkat 2C4) (setting [2]) is 151 nM; with KARN cells (Jurkat 2C4) (setting [3]), 660 nM.

Regarding `CCC(=O)CCCCC[C@H](NC(=O)[C@H]1CC12CCN(CC(C)C)CC2)c1ncc(-c2cc3ccccc3nc2OC)[nH]1` [Compound 335], the IC50 worked out at 329 nM on HDAC6 (HDAC6, Fluor-de-Lys assay) and 3280 nM on Recombinant human HDAC8 (setting [1]). The EC50 turned out to be 31 nM in the assay on KARN cells (Jurkat 2C4) (setting [4]) and 63 nM in the assay on KARN cells (Jurkat 2C4) (setting [5]).

As to `CCC(=O)CCCCC[C@H](NC(=O)[C@@H]1CC12CCN(CC)CC2)c1ncc(-c2cc3ccccc3[nH]c2=O)[nH]1` [Compound 292], the IC50 against HDAC6 (HDAC6, Fluor-de-Lys assay) was above 1500 nM; on Recombinant human HDAC8 (setting [1]), above 4500 nM. Besides, the EC50 in the assay on KARN cells (Jurkat 2C4) (setting [4]) was determined as 992 nM; in the assay with KARN cells (Jurkat 2C4) (setting [5]), 1380 nM.

For the molecule `CCC(=O)CCCCC[C@H](NC(=O)[C@H]1CC12CN(C)C2)c1ncc(-c2cc3ccccc3nc2OC)[nH]1` [Compound 323], the half-maximal inhibitory concentration (IC50) amounted to 376 nM against HDAC6 (HDAC6, Fluor-de-Lys assay) and 2300 nM at Recombinant human HDAC8 (setting [1]). For the same molecule, the EC50 stood at 284 nM in the assay on KARN cells (Jurkat 2C4) (setting [4]) and 1290 nM in the assay on KARN cells (Jurkat 2C4) (setting [5]).

For the molecule `CCC(=O)CCCCC[C@H](NC(=O)[C@H]1CC12CCN(CC)CC2)c1ncc(-c2cc3ccccc3nc2O)[nH]1` [Compound 291], the IC50 on HDAC6 (HDAC6, Fluor-de-Lys assay) is 741 nM; at Recombinant human HDAC8 (setting [1]), above 15000 nM. Moreover, the figures for the EC50 in the assay on KARN cells (Jurkat 2C4) (setting [4]) and in the assay with KARN cells (Jurkat 2C4) (setting [5]) were 192 nM and 295 nM, respectively.

As for `CCC(=O)CCCCC[C@H](NC(=O)[C@H]1CC12CCN(CC1CC1)CC2)c1ncc(-c2cc3cccnc3cc2OC)[nH]1` [Compound 394], the IC50 against HDAC6 (HDAC6, Fluor-de-Lys assay) was 76 nM; on Recombinant human HDAC8 (setting [1]), above 900 nM. In addition, the EC50 in the assay on KARN cells (Jurkat 2C4) (setting [4]) was 18 nM; with KARN cells (Jurkat 2C4) (setting [5]) it was 24 nM.

Consider `CCC(=O)CCCCC[C@H](NC(=O)[C@H]1CC12CCN(CCC(F)(F)F)CC2)c1ncc(-c2cc3ccccc3nc2OC)[nH]1` [Compound 332], for which the IC50 at HDAC6 (HDAC6, Fluor-de-Lys assay) came out at 745 nM; at Recombinant human HDAC8 (setting [1]), 14100 nM. The EC50 was 78 nM with KARN cells (Jurkat 2C4) (setting [4]) and 343 nM with KARN cells (Jurkat 2C4) (setting [5]).

Regarding `CCC(=O)CCCCC[C@H](NC(=O)[C@H]1CC12CCN(C)CC2)c1ncc(-c2cc3ccc(-c4ncco4)cc3nc2OC)[nH]1` [Compound 175, (1S)—N-[(1S)-1-{5-[2-methoxy-7-(1,3-oxazol-2-yl)quinolin-3-yl]-1H-imidazol-2-yl}-7-oxononyl]-6-methyl-6-azaspiro[2.5]octane-1-carboxamide], the IC50 on HDAC6 and at Recombinant human HDAC8 was above 150 nM each time. The EC50 in the assay with KARN cells (Jurkat 2C4) (setting [6]) turned out to be 48 nM; in the assay with KARN cells (Jurkat 2C4) (setting [7]), 84 nM.

Turning to `CCC(=O)CCCCC[C@H](NC(=O)[C@H]1C[C@@]12CCN(C)C2)c1ncc(-c2cc3ccccc3nc2OC)[nH]1` [Compound 328], the IC50 at HDAC6 (HDAC6, Fluor-de-Lys assay) came out at 395 nM; on Recombinant human HDAC8 (setting [1]), 3310 nM. Besides, the EC50 stood at 73 nM in the assay on KARN cells (Jurkat 2C4) (setting [4]) and 322 nM in the assay with KARN cells (Jurkat 2C4) (setting [5]).

`CCCN1CCC2(CC1)C[C@@H]2C(=O)N[C@@H](CCCCCC(=O)CC)c1ncc(-c2cc3ccccc3nc2OC)[nH]1` [Compound 331]: the IC50 on HDAC6 (HDAC6, Fluor-de-Lys assay) was determined as 490 nM; at Recombinant human HDAC8 (setting [1]), 2030 nM. Besides, the concentration for a half-maximal effect (EC50) in the assay with KARN cells (Jurkat 2C4) (setting [4]) came out at 154 nM; in the assay with KARN cells (Jurkat 2C4) (setting [5]), 896 nM.

Take `CCC(=O)CCCCC[C@H](NC(=O)[C@H]1CCC12CCN(CC)CC2)c1ncc(-c2cc3ccccc3nc2OC)[nH]1` [Compound 338]: the IC50 at HDAC6 (HDAC6, Fluor-de-Lys assay) amounted to 405 nM; at Recombinant human HDAC8 (setting [1]), 2930 nM. Also, the results for the EC50 in the assay on KARN cells (Jurkat 2C4) (setting [4]) and in the assay with KARN cells (Jurkat 2C4) (setting [5]) were 44 nM and 111 nM, respectively.

For the origin of these results see patent US12590099B2, “Inhibitors of histone deacetylase useful for the treatment or prevention of HIV infection” (Merck Sharp & Dohme LLC, priority 2018, dated 2026).
